Results reported in patent US7169786B2, “Isoxazoline derivatives as anti-depressants” (priority 2001, dated 2007).

Experiments:
[1] = target: T1, hα2A receptor (Homo sapiens, UniProt P08913); assay: Radioligand binding experiment for hα2A receptor ([3H]-raulwolscine); conditions: membranes of CHO cells expressing human α2A receptor, [3H]raulwolscine 1 nM; for IC50: read-out: hα2A pIC50 (converted)
T1 construct: expressed in transfected cells
T1 sequence (P08913 1-465): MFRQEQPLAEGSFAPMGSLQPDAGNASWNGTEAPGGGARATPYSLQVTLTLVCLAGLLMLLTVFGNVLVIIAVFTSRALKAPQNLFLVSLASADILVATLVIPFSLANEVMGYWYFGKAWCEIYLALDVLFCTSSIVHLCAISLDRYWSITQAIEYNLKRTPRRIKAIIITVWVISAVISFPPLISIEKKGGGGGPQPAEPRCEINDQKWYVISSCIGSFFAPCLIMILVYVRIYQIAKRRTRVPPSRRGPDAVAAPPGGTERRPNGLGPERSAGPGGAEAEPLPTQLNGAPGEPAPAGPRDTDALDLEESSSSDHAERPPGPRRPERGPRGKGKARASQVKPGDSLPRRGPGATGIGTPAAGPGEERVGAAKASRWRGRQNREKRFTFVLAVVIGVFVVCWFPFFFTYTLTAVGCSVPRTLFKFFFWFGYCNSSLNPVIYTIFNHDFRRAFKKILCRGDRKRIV
Experimental: The interaction of the compounds of Formula (I) with hα2-receptors and h5-HT-transporters was assessed in in vitro radioligand binding experiments. In general, a low concentration of a radioligand with a high binding affinity for a particular receptor or transporter is incubated with a sample of a tissue preparation enriched in a particular receptor or transporter or with a preparation of cells expressing cloned human receptors in a buffered medium. During the incubation, the radioligand binds to the receptor or transporter. When equilibrium of binding is reached, the receptor bound radioactivity is separated from the non-bound radioactivity, and the receptor- or transporter-bound activity is counted. The interaction of the test compounds with the receptor is assessed in competition binding experiments. Various concentrations of the test compound are added to the incubation mixture containing the receptor- or transporter preparation and the radioligand. The test compound in proportion to its binding affinity and its concentration inhibits binding of the radioligand. The radioligand used for hα2A, hα2B and hα2C receptor binding was [^3H]-raulwolscine and for the h5-HT transporter was [^3H]paroxetine.
CHO cells, stabile transfected with human adrenergic-α2A-, -α2B or α2C receptor cDNA, were cultured in Dulbecco's Modified Eagle's Medium (DMEM)/Nutrient mixture Ham's F12 (ratio 1:1)(Gibco, Gent-Belgium) supplemented with 10% heat inactivated fetal calf serum (Life Technologies, Merelbeke-Belgium) and antibiotics (100 IU/ml penicillin G, 100 μg/ml streptomycin sulphate, 110 μg/ml pyruvic acid and 100 μg/ml L-glutamine). One day before collection, cells were induced with 5 mM sodiumbutyrate. Upon 80–90% of confluence, cells were scraped in phosphate buffered saline without Ca^2+ and Mg^2+ and collected by centrifugation at 1500×g for 10 min. The cells were homogenised in Tris-HCl 50 mM using an Ultraturrax homogenizer and centrifuged for 10 min at 23,500×g. The pellet was washed once by resuspension and rehomogenization and the final pellet was resuspended in Tris-HCl, divided in 1 ml aliquots and stored at −70° C.
Membranes were thawed and re-homogenized in incubation buffer (glycylglycine 25 mM, pH 8.0). […] Filters were rinsed extensively with ice-cold rinsing buffer (Tris-HCl 50 mM pH 7.4). Filter-bound radioactivity was determined by scintillation counting in a Topcount (Packard, Meriden, Conn.) and results were expressed as counts per minute (cpm). Non-specific binding was determined in the presence of 1 μM oxymetazoline for hα2A- and hα2B receptors and 1 μM spiroxatrine for hα2C receptors.
Data from assays in the presence of compound were calculated as a percentage of total binding measured in the absence of test compound. Inhibition curves, plotting percent of total binding versus the log value of the concentration of the test compound, were automatically generated, and sigmoidal inhibition curves were fitted using non-linear regression. The pIC50 values of test compounds were derived from individual curves.

[2] = target: T2, hα2B receptor (Homo sapiens, UniProt P18089); assay: Radioligand binding experiment for hα2B receptor ([3H]-raulwolscine); conditions: membranes of CHO cells expressing human α2B receptor, [3H]raulwolscine 1 nM; for IC50: read-out: hα2B pIC50 (converted)
T2 construct: expressed in transfected cells
T2 sequence (P18089 1-450): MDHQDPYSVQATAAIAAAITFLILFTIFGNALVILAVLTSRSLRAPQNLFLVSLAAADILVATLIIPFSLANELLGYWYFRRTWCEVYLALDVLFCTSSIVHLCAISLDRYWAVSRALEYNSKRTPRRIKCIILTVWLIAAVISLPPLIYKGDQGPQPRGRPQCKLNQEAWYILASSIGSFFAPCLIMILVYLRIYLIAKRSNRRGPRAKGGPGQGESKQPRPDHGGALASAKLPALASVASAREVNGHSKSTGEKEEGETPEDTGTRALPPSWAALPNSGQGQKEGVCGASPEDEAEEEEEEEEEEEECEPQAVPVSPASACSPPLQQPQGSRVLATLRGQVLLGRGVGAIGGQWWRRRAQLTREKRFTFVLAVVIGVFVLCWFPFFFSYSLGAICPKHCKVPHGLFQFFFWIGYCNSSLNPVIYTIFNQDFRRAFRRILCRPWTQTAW
Procedure, shortened: (§1)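 Competition binding with [3H]-rauwolscine on membranes from CHO cells stably expressing human α2A, α2B or α2C receptors (sodium butyrate-induced), in 25 mM glycylglycine pH 8.0; filtration and scintillation counting.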

[3] = target: T3, hα2C receptor (Homo sapiens, UniProt P18825); assay: Radioligand binding experiment for hα2C receptor ([3H]-raulwolscine); conditions: membranes of CHO cells expressing human α2C receptor, [3H]raulwolscine 1 nM; for IC50: read-out: hα2C pIC50 (converted)
T3 construct: expressed in transfected cells
T3 sequence (P18825 1-462): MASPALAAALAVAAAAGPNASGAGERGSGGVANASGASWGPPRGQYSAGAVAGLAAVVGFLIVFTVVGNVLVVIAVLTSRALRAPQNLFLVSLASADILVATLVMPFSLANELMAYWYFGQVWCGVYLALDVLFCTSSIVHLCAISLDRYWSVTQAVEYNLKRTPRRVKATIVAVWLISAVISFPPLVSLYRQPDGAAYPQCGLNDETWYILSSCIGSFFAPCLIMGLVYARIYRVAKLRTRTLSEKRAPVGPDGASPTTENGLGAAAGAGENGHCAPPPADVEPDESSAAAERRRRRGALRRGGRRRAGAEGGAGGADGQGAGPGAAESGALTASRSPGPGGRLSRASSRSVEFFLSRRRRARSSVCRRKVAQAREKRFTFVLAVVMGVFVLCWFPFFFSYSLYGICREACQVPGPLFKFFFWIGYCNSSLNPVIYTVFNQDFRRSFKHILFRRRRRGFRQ
Procedure, shortened: as §1

[4] = target: T4, h5-HT transporter (Homo sapiens, UniProt P31645); assay: Radioligand binding experiment for 5-HT transporter ([3H]paroxetine, human platelet membranes); conditions: human platelet membranes, [3H]paroxetine 0.5 nM; for IC50: read-out: 5HTT pIC50 (converted)
T4 construct: Human platelet membranes (Oceanix Biosciences Corporation, Hanover, Md., USA) were thawed; tissue Oceanix Biosciences Corporation, Hanover, Md., USA; host or cells: human platelet membranes
T4 sequence (P31645 whole entry): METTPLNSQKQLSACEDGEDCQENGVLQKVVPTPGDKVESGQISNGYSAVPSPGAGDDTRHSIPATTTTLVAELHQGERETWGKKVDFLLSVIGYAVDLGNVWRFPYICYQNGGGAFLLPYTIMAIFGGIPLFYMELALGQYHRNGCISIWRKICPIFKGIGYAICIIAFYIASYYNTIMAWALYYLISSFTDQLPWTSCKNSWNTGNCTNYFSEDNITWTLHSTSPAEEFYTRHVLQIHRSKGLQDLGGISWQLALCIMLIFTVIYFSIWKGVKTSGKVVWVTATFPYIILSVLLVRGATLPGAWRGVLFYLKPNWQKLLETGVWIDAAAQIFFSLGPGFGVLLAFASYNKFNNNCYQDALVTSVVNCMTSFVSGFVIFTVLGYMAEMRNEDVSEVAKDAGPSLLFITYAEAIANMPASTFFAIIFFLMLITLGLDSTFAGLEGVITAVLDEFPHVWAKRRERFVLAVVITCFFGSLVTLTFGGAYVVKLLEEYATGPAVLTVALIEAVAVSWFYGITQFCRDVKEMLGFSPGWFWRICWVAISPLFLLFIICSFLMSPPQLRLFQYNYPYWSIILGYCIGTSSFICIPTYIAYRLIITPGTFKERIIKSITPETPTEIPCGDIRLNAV
Procedure, shortened: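 Competition binding of [^3H]paroxetine to human platelet membranes in Tris-HCl 50 mM, 120 mM NaCl, 5 mM KCl; filter-bound radioactivity counted.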

Row | IC50 [1] | IC50 [2] | IC50 [3] | IC50 [4] | Compound | hα2A pIC50 [1] | hα2B pIC50 [2] | hα2C pIC50 [3] | 5HTT pIC50 [4]
1 | 3.24 nM | 7.24 nM | 6.92 nM | 245 nM | C(=Cc1ccccc1)CN1CCN(CC2ON=C3c4cc5c(cc4OCC32)OCO5)CC1 (stereo not drawn) [Compound 278] | – | – | – | –
2 | 77.6 nM | 25.1 nM | 23.4 nM | 24 nM | COc1cc2c(cc1OC)C1=NOC(CN3CCN(CC(Br)=Cc4ccccc4)CC3)C1CO2 (stereo not drawn) [Compound 143] | – | – | – | –
3 | 12.6 nM | 14.5 nM | 11.5 nM | 17 nM | COc1cc2c(cc1OC)C1=NOC(CN3CCN(CCCc4ccccc4)CC3)C1CO2 (stereo not drawn) [Compound 32] | – | – | – | –
4 | 282 nM | 776 nM | 324 nM | 23.4 nM | COc1cc2c(cc1OC)C1=NOC(CN3CCN(CC=Cc4ccc5ccccc5c4)CC3)C1CO2 (stereo not drawn) [Compound 181] | – | – | – | –
5 | 603 nM | 575 nM | 363 nM | 257 nM | COc1cc2c(cc1OC)C1=NOC(CN3CCN(Cc4cccc(F)c4)CC3)C1CO2 (stereo not drawn) [Compound 285] | – | – | – | –
6 | – | – | – | – | C(=Cc1ccccc1)CN1CCN(CC2ON=C3c4cc5c(cc4OCC32)OCC5)CC1 (racemic) [Compound 279] | 8.45 | 8.03 | 8.24 | 7.45
7 | 759 nM | 407 nM | 724 nM | 871 nM | COc1cc2c(cc1OC)C1=NOC(CN3CCN(Cc4ccoc4)CC3)C1CO2 (stereo not drawn) [Compound 296] | – | – | – | –
8 | 1 nM | 5.5 nM | 8.91 nM | 5.75 nM | Oc1ccc2c(c1)OCC1C2=NOC1CN1CCN(Cc2ccc3ccccc3c2)CC1 (stereo not drawn) [Compound 268] | – | – | – | –
9 | 3.8 nM | 7.41 nM | 1.35 nM | 126 nM | CSc1cc2c(cc1F)C1=NOC(CN3CCN(CC(C)=Cc4ccccc4)CC3)C1CO2 (stereo not drawn) [Compound 244] | – | – | – | –
10 | – | – | – | – | COc1cc2c(cc1OC)C1=NOC(CN(C=O)C3CCN(Cc4ccc5ccccc5c4)CC3)C1CO2 (racemic) [Compound 282] | 7.66 | 7.26 | 7.64 | 8.06
11 | 10.5 nM | 174 nM | 120 nM | 407 nM | COc1cc2c(cc1OC)C1=NOC(CN3CCN(C(C)/C=C/c4ccccc4)CC3)C1CO2 (single isomer, unassigned) [Compound 316] | – | – | – | –
12 | 7.59 nM | 14.1 nM | 43.7 nM | 66.1 nM | COc1ccc2c(c1)CCC1C2=NOC1CN1CCN(CC=Cc2ccccc2)CC1 (stereo not drawn) [Comp 220] | – | – | – | –
13 | 2.45 nM | 7.94 nM | 17 nM | 107 nM | c1ccc2cc(CN3CCN(CC4ON=C5c6cc7c(cc6OCC54)OCO7)CC3)ccc2c1 (stereo not drawn) [Compound 277] | – | – | – | –
14 | 11.2 nM | 6.92 nM | 6.46 nM | 8.71 nM | COc1cc2c(cc1OC)C1=NOC(CN3CCN(C/C=C/c4ccsc4)CC3)C1CO2 (single isomer, unassigned) [Compound 314] | – | – | – | –
15 | 2.34 nM | 2.57 nM | 1.86 nM | 16.2 nM | COc1cc2c(cc1O)OCC1C2=NOC1CN1CCN(C/C(C)=C/c2ccccc2)CC1 (stereo not drawn) [Compound 3] | – | – | – | –
16 | 56.2 nM | 141 nM | 34.7 nM | 13.5 nM | COc1cc2c(cc1OC)C1=NOC(CN3CCN(CC=Cc4ccc5c(c4)CCO5)CC3)C1CO2 (stereo not drawn) [Compound 125] | – | – | – | –
17 | 3.89 nM | 13.8 nM | 42.7 nM | 2.95 nM | c1ccc2cc(CN3CCN(CC4ON=C5c6ccc(OC7CCOC7)cc6OCC54)CC3)ccc2c1 (stereo not drawn) [Compound 271] | – | – | – | –
18 | 3.24 nM | 12.6 nM | 2.82 nM | 5.01 nM | COCCOCOc1ccc2c(c1)OCC1C2=NOC1CN1CCN(Cc2ccc3ccccc3c2)CC1 (stereo not drawn) [Compound 267] | – | – | – | –
19 | 141 nM | 123 nM | 25.7 nM | 63.1 nM | COc1cc2c(cc1OC)C1=NOC(CN3CCN(C/C=C/C=C/c4ccccc4)CC3)C1CO2 (single isomer, unassigned) [Compound 127] | – | – | – | –
20 | 19.5 nM | 58.9 nM | 64.6 nM | 38.9 nM | COc1cc2c(cc1OC)C1=NOC(CN3CCN(Cc4ccc5c(N)cccc5c4)CC3)C1CO2 (stereo not drawn) [Compound 304] | – | – | – | –
21 | 46.8 nM | 178 nM | 66.1 nM | 6.92 nM | COc1cc2c(cc1OC)C1=NOC(CN3CCN(Cc4ccc5cc(C)ccc5c4)CC3)C1CO2 (stereo not drawn) [Compound 72] | – | – | – | –
22 | 91.2 nM | 447 nM | 380 nM | 8.13 nM | COc1ccc2c(c1)OCC1C2=NOC1CCN1CCN(Cc2ccc3ccccc3c2)CC1 (stereo not drawn) [Compound 280] | – | – | – | –
23 | 525 nM | 102 nM | 245 nM | 676 nM | COc1cc2c(cc1OC)C1=NOC(CN3CCN(CC(C)Nc4ccccc4)CC3)C1CO2 (stereo not drawn) [Compound 26] | – | – | – | –
24 | 347 nM | 933 nM | 631 nM | 724 nM | COc1cc2c(cc1OC)C1=NOC(CN3CCN(Cc4ccsc4)CC3)C1CO2 (stereo not drawn) [Compound 300] | – | – | – | –
